For three compounds, inhibition results are on record in patent publication US20110039714A1, “Probes, Systems, and Methods for Drug Discovery” (priority 2001, published 2011).

In the test the target is T1, thrombin (Bos taurus, UniProt P00735).
T1 construct: purchased Sigma T-3399
Briefly: biological assay for thrombin inhibitory activity (fluorogenic substrate). Type of test: biochemical. Particulars: for inhibition at 50 µM: test probe concentration 50 μM; for inhibition at 100 µM: test probe concentration 100 μM. On the procedure:
The biological assay (28320) for thrombin inhibitory activity is detailed below. To Nunc 96-well black fluorescence plate wells is added 70 microliters of assay buffer, followed by 10 microliters of 1 millimolar substrate solution. Test probe (10 microliters in 30% DMSO) is then added to wells according to the desired concentrations for the assay. The mixture is incubated at 37° C. for 5 minutes, followed by addition of 10 microliters of thrombin (100 micrograms/mL in assay buffer), to make a final assay volume of 100 microliters. The plate is mixed gently and incubated 15 minutes at 37° C. Stop buffer (100 microliters) is added, and the plate is read by detecting emission at 460 nm. Percent inhibition of test compound is calculated by comparison with control wells. “Assay buffer” is composed of 100 mM KH2PO4, 100 mM Na2HPO4, 1 mM EDTA, 0.01% BRIJ-35, and 1 mM dithiothreitol (added fresh on the day assay is preformed). “Stop buffer” is composed of 100 mM Na—O(O)CCH2Cl and 30 mM sodium acetate which is brought to pH 2.5 with glacial acetic acid. Thrombin was purchased from Sigma (cat #T-3399). Thrombin substrate III fluorogenic was purchased from ICN (cat #195915). Sodium acetate, dithiothreitol, and Brij-35 were purchased from Sigma. Sodium monochloroacetate was purchased from Lancaster 223-498-3. Glacial acetic acid was purchased from Alfa Aesar (cat #33252). Thrombin was stored at −20° C. Thrombin substrate fluorogenic was stored at −20° C. (5 mM in DMSO).
Results are expressed as percentage inhibition at a given test probe concentration in the Table below;

In turn, `CCCCN(CCCC)CCCNC(=O)c1cc(Cl)ccc1NC(=O)c1n[nH]c2ccccc12` [Example B2] came in with an inhibition at 50 µM of 10 to 39% and an inhibition at 100 µM of 40 to 74%.

Compound `C[C@@H](NC(=O)C(NC(=O)c1n[nH]c2ccccc12)C1CCNCC1)c1ccccc1` (stereo partly drawn) [Example B3] had an inhibition at 50 µM of 10 to 39% and an inhibition at 100 µM of 40 to 74%.

As for `COc1ccc(CNC(=O)c2cc(Cl)ccc2NC(=O)c2n[nH]c3ccccc23)cc1OC` [Example B1], the inhibition at 50 µM fell in the range of 10 to 39% and the inhibition at 100 µM fell in the range of 40 to 74%.

Usually inhibition stands for the share of the control response that was lost under treatment.
